According to patent US10035780B2, “Quinazoline scaffold based compounds, pharmaceutical compositions and methods of use thereof” (TECHNION RESEARCH & DEVELOPMENT FOUNDATION LTD., priority 2014, dated 2018):
“Also recorded” adds a separate entry of the source. Like-named read-outs stand apart in the source and are kept apart here.

How the values were obtained:
[1] = biological target: TSPO (Homo sapiens (Human), UniProt P30536); format: binding
Procedure: Briefly, the assay utilizes radioactive standard ligand [^3H] PK 11195 (1-(2-chlorophenyl)-N-methyl-N-(1-methyl-propyl)-3 isoquinolinecarboxamide), and measures the ability of the compounds of the invention to displace standard ligand in binding to TSPO. Total radioactive binding was determined by measuring the radioactivity of the radioactive ligand-receptor complex, obtained in the reaction of radioactive standard with the TSPO. Radioactive standard and the examined compound were added to the TSPO and after some incubation time the radioactivity of the resulting ligand-receptor complexes was measured with the help of a […]. This radioactivity indicates the binding of the radioactive standard to TSPO. […] This can be expressed as the half maximal inhibitory concentration (IC50), which is a measure of the effectiveness of a compound in inhibiting biological or biochemical function, in this case inhibiting binding of standard radioactive ligand binding to the TSPO. A derivative of the IC50 is the Ki, which is the calculated binding affinity of the novel compound to the TSPO.
Binding to TSPO was evaluated using a [^3H]PK 11195 radio-assay, as described above.

[2] = system: U118MG cells; test: Protection against cell death induced by glutamate in U118MG cell culture; format: cell-based, human; details: for protection against cell death induced by glutamate: U118MG cells, 35 mM glutamate, compound 1-100 μM; for Protection against glutamate-induced cell death: cell culture, grade in words; for lethal effects of compound at high concentration: 100 μM compound alone; for lethal effects of compound at high concentration / cell death effect of glutamate at high compound concentration: halogenated vs unhalogenated analog; for cell death effect of glutamate at high compound concentration: glutamate plus 100 μM compound
Procedure: Cell cultures of various human glial type cell lines (T98G, U87MG, A172, U118MG), as well as human neuronal type cell lines SH-SY 5Y and Be(2)-C were used to test the new compounds. In addition, the rat glioma cell line C6 was used. PC12 cells originating from rats were used as another cell line displaying neuronal characteristics. The applicants also have produced, by genetic manipulation, a modified rat C6 glial cell strain and a modified human U118MG glial type cell strain, both under-expressing the TSPO, which allows to study TSPO specific effects, including of the compounds of the invention, which can be done according to methods described previously (Weisinger et al. Biochemistry. 2004; 43:12315-21; Levin et al. 2005; Zeno et al., 2009).
The protective capabilities of the compounds of the invention and involvement of the TSPO were tested in cell culture, using cell lines of glial and neuronal type, cultured and testing according to standard methods (Kugler et al. 2008; Zeno et al. 2009; Dadon-Nachum et al. Stem Cell Rev. 2011; 7:664-71). Furthermore, primary cell cultures are also used (Banker, G. et al. Culturing Nerve Cells, 2nd Edition, The MIT Press (1998). Treatments included: (1) exposure to glutamate (35 mM), Abeta(1-42), NH4Cl, CoCl2, and nitric oxide (NO) donors, in order to mimic particular aspects of neurodegeneration; (2) treatment with the novel compounds and with traditional TSPO ligands as comparative treatment; and (3) TSPO knockdown by genetic manipulation.
(§1) Techniques and parameters assayed are summarized here: Total protein levels (Bradford. Anal Biochem. 1976; 72:248-54); TSPO ligand binding assays (Kugler et al. 2008; Levin et al. 2005; Danovich et al. Eur Neuropsychopharmacol. 2008; 18:24-33) cell death, including apoptosis and necrosis and related molecular biological processes (Soustiel et al. Neuropathol Appl Neurobiol. 2008; 34:412-23; Soustiel et al. Exp Neurol. 2008; 214:201-8; Zeno et al. 2009); mitochondrial transmembrane potential collapse (Chelli et al. Biochem Pharmacol. 2004; 68:125-34; Kugler et al. 2008; Zeno et al., 2009; Shargorodsky et al. Apoptosis. 2012; 17:647-65), reactive oxygen species (ROS) generation as a measure of oxidative stress (Veenman et al. 2008; Zeno et al. 2009); TSPO knockdown (Levin et al. 2005; Zeno et al. 2009); expression levels of mitochondrial TSPO and associated proteins (Veenman et al. 2002; Levin et al. 2005; Veenman et al. 2008); gene expression with RT-PCR and microarray analysis (Bode et al. 2012; Veenman et al. 2012). Parameters of inflammation, immune response, migration, and the cell cycle are also tested. All these approaches can also be applied for quality control of the compounds.
The compounds of the invention protect against cell death induced by glutamate in cell culture of U118MG cells of astrocytic origin (FIGS. 1, 2, 3 and 8) or SH SY 6Y cells of neuronal origin (FIG. 4). […] In the control group, 35 mM of glutamate killed ˜60% of the cells.
The experimental setup is explained using FIG. 8B as an example: • 1. Control: Cell death levels are taken as 0% • 2. Glu: Cell death levels induced by glutamate are over 50% • 3. […] Glu+Cpd 5: When Cpd 5 is given as a treatment to counteract cell death induced by glutamate, increasing concentrations of Cpd 5 reduce cell death levels from over 50% to less than 5%.

[3] = system: R6-2 mice; test: Lifespan of R6-2 mice, transgenic model for Huntington Disease; format: in vivo, mouse; details: for effect on lifespan: daily s.c. injections 5 days a week from week 5, vs DMSO and saline
From the text: For the assays described herein systemic injections of kainic in rats were applied and also contusion (Veenman et al. 2002; Soustiel et al. Neuropathol Appl Neurobiol. 2008; Soustiel et al. Exp Neurol. 2008). These models present very well defined cell death in the brain. Cell death in the brain is the major pathological characteristic of progressing neurodegeneration common to brain diseases. As the compounds of the present invention are designed to prevent cell death in the brain as a consequence of disease and progressing brain damage after injury, including behavioral impairments, animal models displaying cell death in the brain are the models of choice for displaying the protective capabilities of the compounds of the invention. For these reasons the R6-2 model for Huntington Disease was chosen to test the effectiveness of Compound 1 and to compare the effectiveness of Compound 1 with those of the compound of U.S. Pat. No. 8,541,428 (Cpd A) and with the classical TSPO ligand PK 11195, as well as other compounds disclosed herein. Compounds 5 and 6 were also tested in the same R6-2 model.
R6-2 is a transgenic mouse model for Huntington Disease. Huntington Disease in humans is a hereditary neurodegenerative disease affecting motor performance and finally leading to death of the patients having the disease. R6-2 mice (˜120 CAG repeats B6CBA-Tg(HDexon1)62 Gpb/3J) mice were used for the experiments described below. For this purpose, mice obtained from the Jackson Laboratory (ME) were bred. In particular: males genotype: Hemizygous for Tg(HDexon1)62 Gpb, and females from the wildtype background strain B6CBAF1/J were bred according to the protocol of Jackson Laboratory. The male heterozygote offspring (R6-2 mice) were used for determining life span and motor activity, with and without drug treatment. Drug treatment consisted of daily (5 continuous days a week) subcutaneous injections of mice with 20 μl of: saline (sham control), vehicle DMSO (vehicle control), classic TSPO ligand PK 11195 (15 mg/kg), prior art Compound A (15 mg/kg), Compound 1 (15 mg/kg), and compound 1 (7.5 mg/kg). Drug treatment started on week 5 after birth. Quantities were used according to previous studies regarding TSPO ligands.
(§2) Apart from the behavioral experiments, mice were observed daily, and the day of death was noted. Behavioral experiments included distance covered in an open field apparatus, and tremor measurements.
R6-2 mice were used as previously described in Example 5. In one experiment, treatment consisted of daily (5 continuous days per week) subcutaneous injections of mice with 20 μl of vehicle DMSO (control, n=10) and Compound 6 (7.5 mg/kg, n=12). In a separate experiment, compound 5 (7.5 mg/kg, n=5) was tested, compared to DMSO control (n=5).

[4] = system: R6-2 mice; test: Incidence of tremor in R6-2 mice; format: in vivo, mouse
From the text: as §2
To assay incidence of tremor in R6-2 mice of the experiments for this invention, the StartleMonitor of Kinder Scientific (Poway, Calif.), with specific software to assay and present force pressure changes in newtons, was used.

[5] = system: U118MG cells; test: Collapse of the mitochondrial membrane potential (ΔΨm) induced by glutamate; format: cell-based, human; details: glutamate exposed cells
From the text: as §1
Compound 1 is very effective at a concentration of 25 μM in this model (in order to achieve the same effect with the classical TSPO ligand PK 11195 a concentration of 50 μM has to be applied (data not shown).

[6] = displacement of [3H]PK 11195 from TSPO
[7] = binding affinity to the TSPO, unit given as nm

Chain of TSPO (P30536 whole entry): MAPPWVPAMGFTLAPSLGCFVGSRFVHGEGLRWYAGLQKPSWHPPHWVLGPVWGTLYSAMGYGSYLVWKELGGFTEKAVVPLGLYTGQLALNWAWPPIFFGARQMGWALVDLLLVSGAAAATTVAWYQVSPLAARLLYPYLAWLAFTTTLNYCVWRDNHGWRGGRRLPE

Row | SMILES | Ki [1, 6] [nM] | protection against cell death induced by glutamate [2] | Protection against glutamate-induced cell death [2] | effect on lifespan [3] | other results
1 | CCN(CC)C(=O)Oc1nc(-c2ccc(F)c(Cl)c2)nc2ccccc12 [Compound 2, 2-(3-chloro-4-fluorophenyl)quinazolin-4-yl diethylcarbamate] | ~380 | strong protective properties | Good |  | protection against cell death induced by glutamate ([2]; listed as compound 2): protective properties
2 | CCN(CC)C(=O)Oc1nc(-c2c(Cl)cccc2Cl)nc2ccccc12 [Compound 3, 2-(2,6-dichlorophenyl)quinazolin-4-yl diethylcarbamate] | ~1510 | good protective properties | Good |  | protection against cell death induced by glutamate ([2]; listed as compound 3): protective properties
3 | CN(C)C(=O)Oc1nc(-c2ccccc2Cl)nc2ccccc12 [Compound 5, 2-(2-chlorophenyl)quinazolin-4-yl dimethylcarbamate] | ~600 | protect better and more consistently; also recorded: superior over the rest of the compounds | Excellent | increase the average lifespan; also recorded: extends the life span | lethal effects of compound at high concentration [2]: reduces lethal effects; also recorded: reduces cell death effects; also recorded: least adverse side effects; protection against cell death induced by glutamate ([2]; listed as Cpd 5): improves protection; cell death levels induced by compound by itself ([2]; compound alone, no glutamate): ≤ 5%; cell death effect of glutamate at high compound concentration [2]: reduces cell death effect of glutamate in cultures even further; cell death levels, Glu + compound ([2]; glutamate plus increasing concentrations of compound, glutamate alone over 50%): less than 5%; mice living up to 18 weeks ([3]; 7.5 mg/kg s.c.): 20%; mice still alive at 11th week ([3]; 7.5 mg/kg s.c., >50% of DMSO mice dead): 100%; mice still alive at 12 weeks ([3]; 7.5 mg/kg s.c., all DMSO mice dead): 50%; effect on lifespan ([3]; listed as compound 5): robust lifespan enhancing; incidence of tremor activity [4]: tremor reducing effects; also recorded: reduced the incidence of tremor activity
4 | CCN(CC)C(=O)Oc1nc(-c2ccccc2)nc2ccccc12 [Compound 7, 2-phenylquinazolin-4-yl diethylcarbamate] | ~2.5 |  | Good |  | Ki [1, 7]: ~2.5 nM
5 | CCN(CC)C(=O)Oc1nc(-c2ccccc2Cl)nc2ccccc12 [Compound 8, 2-(2-chlorophenyl)quinazolin-4-yl diethylcarbamate] | ~2.5 | improves protection | Good |  | lethal effects of compound at high concentration [2]: reduces lethal effects; lethal effects of compound at high concentration ([2]; listed as Cpd 8): reduces cell death effects; cell death effect of glutamate at high compound concentration [2]: reduces cell death effect of glutamate in cultures even further
6 | CN(C)C(=O)Oc1nc(-c2ccccc2)nc2ccccc12 [Compound A, reference compound] | ~600 | significantly less efficacious | Good | indistinguishable from vehicle treated mice; also recorded: had no such effects; also recorded: has no effect | Ki [1, 7]: ~600 nM
7 | CCC(C)N(C)C(=O)c1cc2ccccc2c(-c2ccccc2Cl)n1 (centres unmarked) [PK 11195, 1-(2-chlorophenyl)-N-methyl-N-(1-methyl-propyl)-3 isoquinolinecarboxamide, reference compound] |  |  |  | indistinguishable from vehicle; also recorded: had no such effects; also recorded: has no effect at all | concentration very effective in preventing ΔΨm collapse [5]: 50 µM
